Where two headings read alike, the source gives them in different places.
Tests used:
LeARG2 [1] = experiment: Effect of various compounds on arginase activity, LeARG2; format: biochemical, Lycopersicon esculentum (tomato)
Protocol: (§1) Homogenates were centrifuged at 20,000×g for 10 min at 4° C., and the supernatants were used as the enzyme source. Recombinant LeARG enzyme was prepared as described above. Protein concentrations were determined as described above. Arginase activity was measured with a spectrophotometric assay for detection of urea (Alabadi et al., Plant Physiol. 112:1237-1244 (1996)), with minor modifications. The enzyme solution was activated with 1 mM MnCl2 at 37° C. for 60 min. […] Reactions were carried out at 37° C. for 20 min and stopped by the addition of 500 μl of 15% (v/v) perchloric acid. A 200-μl aliquot was mixed vigorously with 3 ml of acid mixture [9% (v/v) of phosphoric acid and 27% (v/v) of sulfuric acid] and 100 μl of 3% (w/v) α-isonitrosopropiophenone (Sigma) in 95% ethanol. This mixture was heated in a boiling water bath in the dark for 60 min and cooled for 10 min to room temperature. The OD540 was recorded on a Uvikon 933 spectrophotometer (Research Instruments, San Diego, Calif.). Substrate specificity tests were performed as described above with the exception that agmatine and other related compounds were added in place of L-arginine, to a final concentration of 250 mM. Substrates tested were obtained from Sigma. […] Inhibitor studies were conducted with test compounds that were dissolved in water and then diluted into the assay buffer at various concentrations prior to addition of enzyme. For example, 1 μl of a 5-mM L-NOHA stock was added to 489 μl of assay buffer, followed by addition of 10 μl of enzyme solution. The reaction was carried out as described above. L-NOHA was obtained from Cayman Chemical (Ann Arbor, Mich.). [table]

LeARG1 [2] = experiment: Effect of various compounds on arginase activity, LeARG1; format: biochemical, Lycopersicon esculentum (tomato)
Protocol: as §1

tomato arginase = experiment: Inhibition of tomato arginase by NOHA; format: biochemical, Lycopersicon esculentum (tomato)
Protocol: as §1, with “Mich.).” for “Mich.). [table]”

Bovine arginase = target: T1, Bovine arginase (Bos taurus, UniProt Q2KJ64); experiment: Substrate specificity (urea detection), bovine arginase; format: biochemical; details: 250 mM substrate; for Activity: 50 mM CHES pH 9.6, 2 mM MnCl2, 37° C., 30 min, mean and SD of triplet reactions; for activity relative to that obtained with L-arginine: pH 9.6
T1 sequence (Q2KJ64 1-322): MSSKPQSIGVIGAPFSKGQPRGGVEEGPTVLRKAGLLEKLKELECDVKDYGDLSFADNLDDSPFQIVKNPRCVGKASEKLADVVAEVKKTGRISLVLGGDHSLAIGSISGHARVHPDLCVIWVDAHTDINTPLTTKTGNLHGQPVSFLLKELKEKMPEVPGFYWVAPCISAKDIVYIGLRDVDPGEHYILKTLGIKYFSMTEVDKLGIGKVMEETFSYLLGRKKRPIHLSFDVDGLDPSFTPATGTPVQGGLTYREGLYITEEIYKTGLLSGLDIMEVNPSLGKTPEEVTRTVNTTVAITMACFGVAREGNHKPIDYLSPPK

LeARG2 [3] = experiment: Substrate specificity of tomato arginases (urea detection), recombinant LeARG2; format: biochemical, Lycopersicon esculentum (tomato); details: 250 mM substrate; for Activity: 50 mM CHES pH 9.6, 2 mM MnCl2, 37° C., 30 min, mean and SD of triplet reactions; for activity relative to that obtained with L-arginine: pH 9.6
LeARG1 [4] = experiment: Substrate specificity of tomato arginases (urea detection), recombinant LeARG1; format: biochemical, Lycopersicon esculentum (tomato); details: 250 mM substrate; for Activity: 50 mM CHES pH 9.6, 2 mM MnCl2, 37° C., 30 min, mean and SD of triplet reactions; for activity relative to that obtained with L-arginine: pH 9.6
arginase activity = experiment: L-arginase activity in tomato leaf protein extracts; format: biochemical, Lycopersicon esculentum (tomato); details: exogenous MeJA vapor
LeARG2 [5] = experiment: RNA blot analysis of LeARG2 transcripts in treated tomato leaves; set-up: species or system Lycopersicon esculentum (tomato); details: in vivo
LeARG1 [6] = experiment: RNA blot analysis of LeARG1 transcripts in treated tomato leaves; set-up: species or system Lycopersicon esculentum (tomato); details: in vivo
threonine deaminase (TD) [7] = format: biochemical; details: extracts of methyl-JA-treated tomato leaves
threonine deaminase (TD) [8] = target: T2, threonine deaminase (TD) (Solanum lycopersicum, UniProt P25306); format: biochemical; details: midgut extracts of larvae grown on WT plants; Ile up to mM
T2 construct: from tissue; host or cells: desalted crude extracts of methyl-JA-treated tomato leaves, and of midgut content of M. sexta larvae reared on WT tomato
T2 sequence (P25306 52-418): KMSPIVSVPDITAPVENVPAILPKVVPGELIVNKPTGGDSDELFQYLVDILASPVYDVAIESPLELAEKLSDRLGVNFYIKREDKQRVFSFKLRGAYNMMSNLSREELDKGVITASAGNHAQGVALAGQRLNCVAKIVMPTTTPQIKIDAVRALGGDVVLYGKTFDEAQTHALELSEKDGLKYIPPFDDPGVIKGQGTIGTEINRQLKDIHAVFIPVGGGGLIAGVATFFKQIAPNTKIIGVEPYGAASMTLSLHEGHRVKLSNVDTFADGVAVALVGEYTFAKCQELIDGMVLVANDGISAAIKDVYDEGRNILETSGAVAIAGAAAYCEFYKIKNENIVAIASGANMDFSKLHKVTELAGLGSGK

[9] = compound 5.0 mM, 25 mM L-arginine, % of control reaction
[10] = compound 0.2 mM, 25 mM L-arginine, % of control reaction

## O=C(O)CCS [3 -Mercaptopropionate]
LeARG2 [1]; [9]
  Relative activity (%): 26%
LeARG1 [2]; [9]
  Relative activity (%): 24%

## NC(=NCCC[C@H](N)C(=O)O)NO [L-NOHA, N^G-hydroxy-L-arginine]
Tomato arginase
  Ki lower than the Km for L-arginine: more than 1000 fold
Tomato arginase; plant and non-plant arginases
  mode of inhibition: competitive inhibitor
Tomato arginase; plant enzymes (LeARG1 and LeARG2)
  Ki: ~14 µM
LeARG2 [1]; [10]
  Relative activity (%): 5%
LeARG1 [2]; [10]
  Relative activity (%): 7%

## N=C(N)NCCC[C@H](N)C(=O)O [L-Arginine]
Bovine arginase
  Activity: 6608 ± 351 μmol/mg protein/h
  activity relative to that obtained with L-arginine: (100%)
LeARG2 [3]
  Activity: 7016 ± 86 μmol/mg protein/h
  activity relative to that obtained with L-arginine: (100%)
LeARG1 [4]
  Activity: 8848 ± 177 μmol/mg protein/h
  activity relative to that obtained with L-arginine: (100%)

## O=C(O)CS [Mercaptoacetate]
LeARG2 [1]; [9]
  Relative activity (%): 26%
LeARG1 [2]; [9]
  Relative activity (%): 28%

## N=C(N)NCCCC[C@H](N)C(=O)O [Homoarginine]
LeARG2 [3]
  Activity: 916 ± 16 μmol/mg protein/h
  activity relative to that obtained with L-arginine: (13%)
LeARG1 [4]
  Activity: 1269 ± 2 μmol/mg protein/h
  activity relative to that obtained with L-arginine: (14%)

## N=C(N)NOCC[C@H](N)C(=O)O [Canavanine]
Bovine arginase
  Activity: 14 ± 2 μmol/mg protein/h
  activity relative to that obtained with L-arginine: (0.2%)
LeARG2 [3]
  Activity: 9 ± 1 μmol/mg protein/h
  activity relative to that obtained with L-arginine: (0.1%)
LeARG1 [4]
  Activity: 3 ± 1 μmol/mg protein/h
  activity relative to that obtained with L-arginine: (<0.1%)

## CC/C=C\CC1C(=O)CCC1CC(=O)OC (centres unmarked) [MeJA]
Arginase activity
  arginase activity in leaves after treatment: increase
LeARG2 [5]
  LeARG2 expression in leaves: strongly elicited
LeARG1 [6]
  LeARG1 expression in leaves: low level

## NCCC[C@H](N)C(=O)O [L- Ornithine]
LeARG2 [1]; [9]
  Relative activity (%): 88%
LeARG1 [2]; [9]
  Relative activity (%): 72%

## N=C(N)NCCC[C@@H](N)C(=O)O [D-Arginine]
Bovine arginase
  Activity: 32 ± 13 μmol/mg protein/h
  activity relative to that obtained with L-arginine: (0.5%)
LeARG2 [3]
  Activity: 250 ± 5 μmol/mg protein/h
  activity relative to that obtained with L-arginine: (3.6%)
LeARG1 [4]
  Activity: 195 ± 2 μmol/mg protein/h
  activity relative to that obtained with L-arginine: (2.2%)

## CC(S)C(=O)O (centres unmarked) [2-Mercaptopropionate]
LeARG2 [1]; [9]
  Relative activity (%): 38%
LeARG1 [2]; [9]
  Relative activity (%): 38%

## CC[C@H]1C=C(C(=O)N[C@@]2(C(=O)O)C[C@@H]2CC)[C@H]2CCC(=O)[C@H]2C1 [COR, coronatine]
LeARG2 [5]
  LeARG2 expression in leaves: necessary and sufficient
LeARG1 [6]
  LeARG1 expression in leaves: not induced

## CC[C@H](C)[C@H](N)C(=O)O [Ile, isoleucine]
Threonine deaminase (TD) [7]
  TD activity in the presence of Ile: strongly inhibited
Threonine deaminase (TD) [8]
  TD activity in the presence of Ile: not significantly inhibited

## OCCS [2-Mercaptoethanol]
LeARG2 [1]
  Relative activity (%): 80%
LeARG1 [2]
  Relative activity (%): 81%

## N=C(N)NCCCCN [Agmatine]
Bovine arginase
  Activity: 12 ± 2 μmol/mg protein/h
  activity relative to that obtained with L-arginine: (0.2%)
LeARG2 [3]
  Activity: 41 ± 6 μmol/mg protein/h
  activity relative to that obtained with L-arginine: (0.6%)
LeARG1 [4]
  Activity: 40 ± 3 μmol/mg protein/h
  activity relative to that obtained with L-arginine: (0.5%)
